Where “and” joins values, the source holds several entries; their conditions need not be identical. Equal entries are not always repeated. Each block holds one compound with its values, some of them ahead of it. Calls of active or inactive are those of the source. No cut-off for these calls is given here.
Legend:
[1] = molecular target: T1, Muscarinic acetylcholine receptor M1 (Rattus norvegicus, UniProt P08482); experiment: biochemical; type: tissue-based, Frontal cortex
T1 sequence (P08482 whole entry): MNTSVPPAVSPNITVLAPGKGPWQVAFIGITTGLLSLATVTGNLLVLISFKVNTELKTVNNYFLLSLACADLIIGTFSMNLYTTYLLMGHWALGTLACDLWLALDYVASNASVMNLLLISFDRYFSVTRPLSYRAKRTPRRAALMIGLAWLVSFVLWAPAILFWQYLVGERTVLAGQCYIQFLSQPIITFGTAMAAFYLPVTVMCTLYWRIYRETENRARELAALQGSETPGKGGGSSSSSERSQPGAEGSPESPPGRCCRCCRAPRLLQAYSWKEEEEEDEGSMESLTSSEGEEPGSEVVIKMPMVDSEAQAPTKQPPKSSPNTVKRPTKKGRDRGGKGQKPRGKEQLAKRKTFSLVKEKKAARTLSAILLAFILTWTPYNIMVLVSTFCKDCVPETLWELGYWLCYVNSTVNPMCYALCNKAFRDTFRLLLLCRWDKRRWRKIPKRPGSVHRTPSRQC
Description: In vitro binding affinity towards M1 receptor of rat frontal cortex homogenate by using radioligand [3H]QNB

[2] = molecular target: T2, Adrenergic receptor alpha-1 (Rattus norvegicus, UniProt P15823+P23944+P43140); type: tissue-based, Frontal cortex
T2 sequence (P15823 whole entry): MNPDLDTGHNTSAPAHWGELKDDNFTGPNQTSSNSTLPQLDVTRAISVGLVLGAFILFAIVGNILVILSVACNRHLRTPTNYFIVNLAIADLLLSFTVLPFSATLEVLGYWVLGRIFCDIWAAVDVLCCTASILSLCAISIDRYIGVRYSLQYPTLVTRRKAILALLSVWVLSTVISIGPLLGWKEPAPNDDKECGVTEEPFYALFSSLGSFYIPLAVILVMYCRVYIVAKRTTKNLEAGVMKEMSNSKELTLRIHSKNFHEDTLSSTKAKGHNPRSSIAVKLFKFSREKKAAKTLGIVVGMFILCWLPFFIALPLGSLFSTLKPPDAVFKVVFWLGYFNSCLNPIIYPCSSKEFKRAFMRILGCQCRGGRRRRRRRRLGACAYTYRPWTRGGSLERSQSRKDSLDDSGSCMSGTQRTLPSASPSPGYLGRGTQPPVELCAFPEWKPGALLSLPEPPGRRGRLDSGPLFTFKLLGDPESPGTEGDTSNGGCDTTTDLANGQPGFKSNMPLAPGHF
T2 sequence (P23944 whole entry): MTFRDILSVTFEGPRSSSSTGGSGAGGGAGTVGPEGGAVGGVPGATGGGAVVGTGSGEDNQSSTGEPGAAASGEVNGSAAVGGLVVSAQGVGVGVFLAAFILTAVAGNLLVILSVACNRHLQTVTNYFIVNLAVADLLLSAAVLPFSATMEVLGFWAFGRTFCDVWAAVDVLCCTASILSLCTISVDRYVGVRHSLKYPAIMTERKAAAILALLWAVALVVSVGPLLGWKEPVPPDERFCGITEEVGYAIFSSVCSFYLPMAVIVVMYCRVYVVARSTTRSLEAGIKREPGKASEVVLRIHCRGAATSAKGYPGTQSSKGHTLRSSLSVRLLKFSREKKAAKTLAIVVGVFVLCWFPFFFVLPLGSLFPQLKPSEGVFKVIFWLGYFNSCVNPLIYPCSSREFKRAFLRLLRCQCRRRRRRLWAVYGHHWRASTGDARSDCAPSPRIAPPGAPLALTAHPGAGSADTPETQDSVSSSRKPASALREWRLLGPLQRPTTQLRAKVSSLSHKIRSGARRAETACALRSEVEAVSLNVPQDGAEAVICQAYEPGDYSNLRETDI
T2 sequence (P43140 whole entry): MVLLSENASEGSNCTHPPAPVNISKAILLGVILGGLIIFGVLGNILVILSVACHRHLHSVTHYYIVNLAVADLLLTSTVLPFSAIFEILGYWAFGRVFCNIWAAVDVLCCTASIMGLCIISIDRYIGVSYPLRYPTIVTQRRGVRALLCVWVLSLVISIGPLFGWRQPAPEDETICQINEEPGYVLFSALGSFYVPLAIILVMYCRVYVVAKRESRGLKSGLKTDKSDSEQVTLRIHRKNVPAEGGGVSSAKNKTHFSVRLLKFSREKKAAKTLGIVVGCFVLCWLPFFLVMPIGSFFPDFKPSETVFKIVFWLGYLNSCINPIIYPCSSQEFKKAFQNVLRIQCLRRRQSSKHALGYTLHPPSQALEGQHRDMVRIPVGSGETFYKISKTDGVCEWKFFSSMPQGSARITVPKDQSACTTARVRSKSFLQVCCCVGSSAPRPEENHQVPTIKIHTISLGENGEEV
Description: In vitro binding affinity towards alpha-1 adrenergic receptor in rat frontal cortex homogenate using of [3H]prazosin as radioligand

[3] = molecular target: Histamine H1 receptor (Rattus norvegicus, UniProt P31390); experiment: biochemical; type: tissue-based, Frontal cortex
Sequence of Histamine H1 receptor (P31390 whole entry): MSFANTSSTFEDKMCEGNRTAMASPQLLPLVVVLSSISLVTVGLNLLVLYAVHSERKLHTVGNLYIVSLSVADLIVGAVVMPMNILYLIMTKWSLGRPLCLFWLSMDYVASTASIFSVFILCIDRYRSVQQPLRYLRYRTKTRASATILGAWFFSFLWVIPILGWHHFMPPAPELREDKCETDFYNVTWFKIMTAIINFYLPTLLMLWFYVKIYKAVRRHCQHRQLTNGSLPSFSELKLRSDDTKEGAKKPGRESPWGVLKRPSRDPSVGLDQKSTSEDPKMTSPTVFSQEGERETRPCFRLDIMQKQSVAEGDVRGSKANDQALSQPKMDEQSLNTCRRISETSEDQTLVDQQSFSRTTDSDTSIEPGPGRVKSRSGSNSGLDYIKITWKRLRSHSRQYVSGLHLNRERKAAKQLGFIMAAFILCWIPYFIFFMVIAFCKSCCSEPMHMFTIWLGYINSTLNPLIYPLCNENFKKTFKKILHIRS
Description: In vitro binding affinity towards Histamine H1 receptor of rat frontal cortex homogenate by using radioligand [3H]pyrilamine

[4] = species: Rattus norvegicus; experiment: animal or person; type: functional; conditions: po
Description: In vivo inhibition against conditioned avoidance response in rats after oral administration

[5] = species: Rattus norvegicus; experiment: animal or person; type: functional; conditions: po; remark: listed apart in the source
Description: In vivo inhibition against MK-801 induced hyperactivity in rats after oral administration

[6] = species: Rattus norvegicus; experiment: animal or person; type: functional; conditions: po; remark: listed apart in the source
Description: In vivo inhibition against catalepsy in rats after oral administration evaluated by metal bar

[7] = species: Rattus norvegicus; type: functional
Description: Minimal inhibitory activity tested in rats after intraperitoneal administration

[8] = molecular target: T3, Adrenergic receptor alpha-2 (Rattus norvegicus, UniProt P22086+P19328+P22909); type: tissue-based, Frontal cortex
T3 sequence (P22086 whole entry): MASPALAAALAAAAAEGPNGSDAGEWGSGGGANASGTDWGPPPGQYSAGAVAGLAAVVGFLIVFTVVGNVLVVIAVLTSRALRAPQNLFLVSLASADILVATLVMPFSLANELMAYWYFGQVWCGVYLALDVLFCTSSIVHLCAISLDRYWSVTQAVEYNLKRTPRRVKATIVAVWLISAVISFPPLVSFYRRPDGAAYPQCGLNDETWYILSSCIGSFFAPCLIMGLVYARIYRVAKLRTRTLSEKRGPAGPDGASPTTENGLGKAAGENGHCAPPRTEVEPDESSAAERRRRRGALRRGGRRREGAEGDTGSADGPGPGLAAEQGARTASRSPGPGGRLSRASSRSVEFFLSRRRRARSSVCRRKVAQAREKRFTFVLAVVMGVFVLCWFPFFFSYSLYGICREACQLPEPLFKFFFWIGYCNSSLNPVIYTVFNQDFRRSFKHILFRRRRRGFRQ
T3 sequence (P19328 whole entry): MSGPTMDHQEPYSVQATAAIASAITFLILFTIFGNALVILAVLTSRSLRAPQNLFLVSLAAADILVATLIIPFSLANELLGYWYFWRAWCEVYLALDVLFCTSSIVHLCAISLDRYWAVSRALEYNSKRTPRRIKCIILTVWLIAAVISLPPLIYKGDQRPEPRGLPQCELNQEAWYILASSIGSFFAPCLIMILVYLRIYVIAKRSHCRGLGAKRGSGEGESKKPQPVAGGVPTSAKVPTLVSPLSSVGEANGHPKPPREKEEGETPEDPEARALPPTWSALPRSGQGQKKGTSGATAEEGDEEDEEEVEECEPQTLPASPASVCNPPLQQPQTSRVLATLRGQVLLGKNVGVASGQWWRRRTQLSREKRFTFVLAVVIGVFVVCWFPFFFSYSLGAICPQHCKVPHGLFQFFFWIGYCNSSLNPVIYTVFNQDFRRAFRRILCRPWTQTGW
T3 sequence (P22909 whole entry): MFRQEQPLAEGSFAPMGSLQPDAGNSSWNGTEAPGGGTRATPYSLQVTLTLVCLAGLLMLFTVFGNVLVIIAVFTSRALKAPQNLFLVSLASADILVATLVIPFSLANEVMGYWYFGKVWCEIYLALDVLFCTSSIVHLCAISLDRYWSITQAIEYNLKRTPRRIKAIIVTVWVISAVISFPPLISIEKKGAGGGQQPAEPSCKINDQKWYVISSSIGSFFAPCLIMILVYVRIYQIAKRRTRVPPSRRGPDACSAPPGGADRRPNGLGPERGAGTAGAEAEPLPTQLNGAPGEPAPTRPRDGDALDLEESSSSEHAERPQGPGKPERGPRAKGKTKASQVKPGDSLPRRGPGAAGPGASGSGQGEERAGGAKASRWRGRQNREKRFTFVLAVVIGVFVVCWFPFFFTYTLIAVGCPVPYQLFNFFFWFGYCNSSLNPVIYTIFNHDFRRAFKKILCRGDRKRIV
Description: In vitro binding affinity towards alpha-2 adrenergic receptor in rat frontal cortex homogenate using of [3H]clonidine as radioligand

[9] = species: Rattus norvegicus; experiment: animal or person; type: functional; conditions: po; remark: listed apart in the source
Description: In vivo inhibition of spontaneous locomotory activity tested in rats after oral administration

[10] = species: Mus musculus; experiment: animal or person; type: functional; conditions: po
Description: In vivo inhibitory activity against 5-MeO-DMT-Induced Head-Twitches in mouse after oral administration

[11] = molecular target: 5-hydroxytryptamine receptor 2A (Homo sapiens, UniProt P28223)
Sequence of 5-hydroxytryptamine receptor 2A (Homo sapiens, UniProt P28223) (P28223 whole entry): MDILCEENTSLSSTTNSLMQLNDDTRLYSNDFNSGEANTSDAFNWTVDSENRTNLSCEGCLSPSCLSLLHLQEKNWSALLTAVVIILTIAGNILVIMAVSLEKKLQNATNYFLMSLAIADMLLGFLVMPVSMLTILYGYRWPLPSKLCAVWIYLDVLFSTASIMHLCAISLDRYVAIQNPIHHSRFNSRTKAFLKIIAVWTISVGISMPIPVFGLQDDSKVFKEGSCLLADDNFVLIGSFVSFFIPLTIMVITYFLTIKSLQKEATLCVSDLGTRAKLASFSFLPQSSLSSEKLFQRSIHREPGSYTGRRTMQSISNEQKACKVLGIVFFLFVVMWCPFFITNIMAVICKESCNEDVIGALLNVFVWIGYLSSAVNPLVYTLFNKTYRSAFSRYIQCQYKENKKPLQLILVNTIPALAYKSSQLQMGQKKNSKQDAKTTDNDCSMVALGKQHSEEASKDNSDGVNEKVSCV
Description: In vitro binding affinity towards 5-hydroxytryptamine 2A receptor in human using [3H]ketanserin as radioligand

[12] = species: Mus musculus; experiment: animal or person; type: functional; conditions: po; remark: listed apart in the source
Description: In vivo inhibitory activity tested in apomorphine climbing mice after oral administration

[13] = species: Rattus norvegicus; type: functional; conditions: dose 0.3 mg/kg, route intraperitoneal
Description: Inhibitory activity tested in rats after intraperitoneal administration at 0.3 mg/kg with saline

[14] = molecular target: T4, 5-hydroxytryptamine receptor 2A (Rattus norvegicus, UniProt P14842)
T4 sequence (P14842 whole entry): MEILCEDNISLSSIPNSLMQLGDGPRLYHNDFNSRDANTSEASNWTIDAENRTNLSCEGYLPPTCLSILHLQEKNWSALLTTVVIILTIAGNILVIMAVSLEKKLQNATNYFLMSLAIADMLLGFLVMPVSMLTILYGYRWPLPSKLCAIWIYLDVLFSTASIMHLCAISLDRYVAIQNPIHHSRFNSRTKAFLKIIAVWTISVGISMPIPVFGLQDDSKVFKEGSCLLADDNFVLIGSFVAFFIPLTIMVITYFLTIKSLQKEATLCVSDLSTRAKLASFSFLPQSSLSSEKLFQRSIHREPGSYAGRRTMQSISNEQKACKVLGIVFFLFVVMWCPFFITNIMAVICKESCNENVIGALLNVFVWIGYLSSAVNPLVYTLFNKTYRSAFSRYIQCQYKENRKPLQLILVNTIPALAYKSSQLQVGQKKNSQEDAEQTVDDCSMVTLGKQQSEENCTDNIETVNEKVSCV
Description: In vitro binding affinity towards 5-hydroxytryptamine 2A receptor in rat tissue homogenate using [3H]ketanserin as radioligand

[15] = molecular target: T5, D(1A) dopamine receptor (Rattus norvegicus, UniProt P18901); design: species or system Tissue
T5 sequence (P18901 whole entry): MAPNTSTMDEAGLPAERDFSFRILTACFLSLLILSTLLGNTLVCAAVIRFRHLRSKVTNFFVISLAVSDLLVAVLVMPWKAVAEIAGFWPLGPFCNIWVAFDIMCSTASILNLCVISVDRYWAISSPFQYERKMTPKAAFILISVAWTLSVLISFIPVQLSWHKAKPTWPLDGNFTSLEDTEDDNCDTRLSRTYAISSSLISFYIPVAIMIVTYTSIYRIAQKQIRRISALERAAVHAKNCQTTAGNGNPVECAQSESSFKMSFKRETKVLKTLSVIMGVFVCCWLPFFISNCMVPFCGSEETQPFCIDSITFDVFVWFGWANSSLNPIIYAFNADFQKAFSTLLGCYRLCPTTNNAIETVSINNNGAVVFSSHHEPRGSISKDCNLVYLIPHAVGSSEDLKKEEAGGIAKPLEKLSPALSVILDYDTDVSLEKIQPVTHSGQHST
Description: In vitro binding affinity towards Dopamine receptor D1 in rat tissue homogenate using [3H]-SCH- 23390 as radioligand

[16] = molecular target: T6, D(3) dopamine receptor (Rattus norvegicus, UniProt P19020); experiment: biochemical; type: cell-based, Sf9
T6 sequence (P19020 whole entry): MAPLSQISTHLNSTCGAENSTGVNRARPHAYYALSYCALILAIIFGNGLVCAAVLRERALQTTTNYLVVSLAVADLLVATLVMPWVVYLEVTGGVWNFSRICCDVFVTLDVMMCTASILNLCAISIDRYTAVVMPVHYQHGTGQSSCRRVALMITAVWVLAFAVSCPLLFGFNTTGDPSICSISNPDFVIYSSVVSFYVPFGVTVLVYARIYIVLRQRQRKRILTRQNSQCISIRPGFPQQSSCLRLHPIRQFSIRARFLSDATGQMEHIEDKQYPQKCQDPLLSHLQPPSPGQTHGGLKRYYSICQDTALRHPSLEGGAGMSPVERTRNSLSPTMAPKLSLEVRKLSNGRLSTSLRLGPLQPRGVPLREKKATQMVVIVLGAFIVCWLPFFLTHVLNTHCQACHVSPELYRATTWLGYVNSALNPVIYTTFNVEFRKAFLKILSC
Description: (§1) In vitro binding affinity towards Dopamine receptor D3 in Sf9 cell membranes using [3H]7-OH-DPAT as radioligand

[17] = molecular target: T5, D(1A) dopamine receptor; design: species or system Tissue; remark: listed apart in the source
[18] = molecular target: D(2) dopamine receptor (Rattus norvegicus, UniProt P61169); design: species or system Tissue
Sequence of D(2) dopamine receptor (P61169 whole entry): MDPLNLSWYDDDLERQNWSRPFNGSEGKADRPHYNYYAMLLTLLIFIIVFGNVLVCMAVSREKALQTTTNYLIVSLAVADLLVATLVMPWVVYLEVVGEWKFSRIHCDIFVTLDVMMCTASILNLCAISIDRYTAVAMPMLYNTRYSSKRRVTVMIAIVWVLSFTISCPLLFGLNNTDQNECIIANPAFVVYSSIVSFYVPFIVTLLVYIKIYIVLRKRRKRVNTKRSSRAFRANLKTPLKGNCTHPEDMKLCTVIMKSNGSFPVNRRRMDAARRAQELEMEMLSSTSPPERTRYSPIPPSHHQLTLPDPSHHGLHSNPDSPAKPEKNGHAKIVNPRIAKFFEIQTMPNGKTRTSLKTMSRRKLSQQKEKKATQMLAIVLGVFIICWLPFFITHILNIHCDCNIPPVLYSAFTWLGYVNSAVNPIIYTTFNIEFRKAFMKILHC

[19] = species: Mus musculus
[20] = molecular target: T4, 5-hydroxytryptamine receptor 2A; design: species or system Tissue
[21] = molecular target: T6, D(3) dopamine receptor; type: cell-based; conditions: sf9
Description: as §1

Ki [1]: 2.3 µM
Ki [2]: 0.0042 µM
Ki [3]: 0.0027 µM
SMILES: Cc1ccc2n1C=C(N1CCN(C)CC1)c1ccccc1S2

Ki [14]: 0.019 µM
Ki [15]: 1.74 µM
Ki [16]: 0.113 µM
SMILES: CN1CCN(C2=Cn3c(CO)ccc3Sc3ccccc32)CC1

Ki [14]: 0.217 µM
Ki [15]: 7.6 µM
Ki [16]: 0.278 µM
SMILES: CC(C)OCc1ccc2n1C=C(N1CCN(C)CC1)c1ccccc1S2

Ki [17]: Not Active
Ki [18]: Not Active
Ki [20]: Not Active
Ki [21]: Not Active
SMILES: CN1CCN(C2Cn3c(CO)ccc3Sc3ccc(Cl)cc32)CC1 (configuration not stated)

Ki [14]: 0.074 µM
Ki [15]: 1.62 µM
Ki [16]: 0.066 µM
SMILES: O=C1NCCN1CCN1CCN(C2Cn3cccc3Sc3ccc(Cl)cc32)CC1 (configuration not stated)

Ki [14]: 0.0043 µM
Ki [15]: 0.00587 µM
Ki [16]: 0.0043 µM
SMILES: CN1CCCN(C2=Cn3cccc3Sc3ccc(Cl)cc32)CC1

Ki [14]: 0.405 µM
Ki [15]: > 1000 µM
Ki [16]: 0.316 µM
SMILES: COCc1ccc2n1CC(N1CCN(C)CC1)c1cc(Cl)ccc1S2 (configuration not stated)

The remaining lines, values behind:

SMILES: CN1CCN(C2=Cn3cccc3Sc3ccccc32)CC1
ED50 [4]: 1.1 mg/kg and 3.7 µmol/kg
ED50 [5]: 1.1 mg/kg and 3.69 µmol/kg
ED50 [6]: > 100 mg/kg and > 336 µmol/kg
Min ID [7]: 1 µM/kg
Ki [8]: 1.02 µM
Ki [1]: 2.07 µM
ED50 [9]: 0.51 mg/kg and 1.71 µmol/kg
Ki [2]: 0.0005 µM
ED50 [10]: 1.99 mg/kg and 6.7 µmol/kg
Ki [11]: 0.0011 µM
ED50 [12]: 1.64 mg/kg and 5.5 µmol/kg
Ki [3]: 0.0027 µM
Correct responses [13]: 80.1% and 81.5%

SMILES: CN1CCN(C2=C(C=O)n3c(C=O)ccc3Sc3ccccc32)CC1
Ki [17]: Not Active
Ki [18]: Not Active
Ki [14]: 2.3 µM
Ki [16]: > 1 µM

SMILES: CN1CCN([C@@H]2Cn3cccc3Sc3ccc(Cl)cc32)CC1
ED50 [6]: 115 µmol/kg
ED50 [10]: 14.3 µmol/kg
ED50 [19]: inactive

SMILES: CN1CCN(C2=Cn3cccc3Sc3ccc(Br)cc32)CC1
Ki [14]: 0.00083 µM
Ki [15]: 0.0034 µM
Ki [16]: 0.00025 µM

SMILES: CN1CCN(C2=Cn3c(C=O)ccc3Sc3ccccc32)CC1
Ki [14]: 0.02 µM
Ki [15]: 4.28 µM
Ki [16]: 0.102 µM

SMILES: CN1CCN(C2=Cn3c(/C=N/O)ccc3Sc3ccccc32)CC1
Ki [17]: Not Active
Ki [18]: Not Active
Ki [14]: 1.98 µM
Ki [16]: 4.26 µM

Source: ChEMBL document CHEMBL1139457, “Pyrrolo[1,3]benzothiazepine-based serotonin and dopamine receptor antagonists. Molecular modeling, further structure-activity relationship studies, and identification of novel atypical antipsychotic agents” (J Med Chem, 2004)
